The assay relates to Jurkat. In words: Cytotoxicity against Jurkat T lymphocytes by MTT assay. The assay is classed as functional, cell-based. Conditions: Homo sapiens. Background: Tetrazolium assays rely on reduction of a dye to a coloured formazan, in cell work by metabolically active cells.
For `COc1cccc2c1C(=O)c1c(O)c3c(c(O)c1C2=O)C[C@@](O)(C(C)=O)C[C@@H]3O[C@H]1C[C@H](NCc2cccc(CN[C@@H]3C[C@@H](O[C@H]4C[C@](O)(C(C)=O)Cc5c(O)c6c(c(O)c54)C(=O)c4c(OC)cccc4C6=O)O[C@H](C)[C@@H]3O)c2)[C@H](O)[C@H](C)O1`, it took 17 nM to reach half-maximal inhibition (IC50) and it took 53.5 nM to reach the 75% level (IC75).
Regarding `COc1cccc2c1C(=O)c1c(O)c3c(c(O)c1C2=O)C[C@@](O)(C(C)=O)C[C@@H]3O[C@H]1C[C@H](NCc2ccc(CN[C@@H]3C[C@@H](O[C@H]4C[C@](O)(C(C)=O)Cc5c(O)c6c(c(O)c54)C(=O)c4c(OC)cccc4C6=O)O[C@H](C)[C@@H]3O)cc2)[C@H](O)[C@H](C)O1`, the IC50 – broadly, the concentration needed to halve the response being measured – came out at 17.7 nM and the IC75 (in general, the point of the concentration-response curve where the effect stands at 75%) came out at 60 nM.
`COc1cccc2c1C(=O)c1c(O)c3c(c(O)c1C2=O)C[C@@](O)(C(C)=O)C[C@@H]3O[C@H]1C[C@H](N)[C@H](O)[C@H](C)O1` [DAUNORUBICIN] registered an IC50 of 82.6 nM and an IC75 of 182 nM.

Values taken from ChEMBL document CHEMBL1140422, “A new bisintercalating anthracycline with picomolar DNA binding affinity” (J Med Chem, 2005).
